Changes are numbered by the printed parent chain.

From publication PMC12647591, “Evolution, structure and function of L-cysteine desulfidase, an enzyme involved in sulfur metabolism in the methanogenic archeon Methanococcus maripaludis” (Communications Biology, 2025) come the findings set out here.

The target of data set [1] is T1, L-cysteine desulfidase CyuA (MmCyuA) (Methanococcus maripaludis, UniProt Q6LX84). The experiment in a line: crystal structure, […] Å (from crystallization solution). Format: binding. The arrangement: gene MMP1468; [2Fe-2S]-MmCyuA, molecule A.
T1 sequence (Q6LX84 whole entry): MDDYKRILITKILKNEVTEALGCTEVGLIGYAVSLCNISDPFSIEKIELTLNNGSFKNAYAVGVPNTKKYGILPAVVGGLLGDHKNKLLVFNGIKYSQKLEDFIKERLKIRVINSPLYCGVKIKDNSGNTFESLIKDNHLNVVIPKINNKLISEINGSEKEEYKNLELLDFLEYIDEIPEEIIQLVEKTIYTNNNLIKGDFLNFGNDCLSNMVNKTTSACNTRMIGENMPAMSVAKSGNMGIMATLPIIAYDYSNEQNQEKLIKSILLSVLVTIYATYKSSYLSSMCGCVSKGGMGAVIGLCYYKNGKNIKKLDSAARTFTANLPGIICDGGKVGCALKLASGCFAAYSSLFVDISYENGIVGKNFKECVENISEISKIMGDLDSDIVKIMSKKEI
Data set [2] has as its target T1, L-cysteine desulfidase CyuA (MmCyuA). The data set is described as follows: pyruvate formation assay ([…],4-dinitrophenylhydrazine), Lineweaver-Burk and Dixon plots. Format: biochemical. Also on record: gene MMP1468; holo-MmCyuA, recombinant, His-tag removed.
Data set [3] deals with T2, L-cysteine desulfidase CyuA (MmCyuA) (Methanococcus maripaludis, UniProt Q6LX84, C289A).
T2 construct: gene MMP1468; holo-C289A-MmCyuA
T2 sequence (Q6LX84 1-396 C289A): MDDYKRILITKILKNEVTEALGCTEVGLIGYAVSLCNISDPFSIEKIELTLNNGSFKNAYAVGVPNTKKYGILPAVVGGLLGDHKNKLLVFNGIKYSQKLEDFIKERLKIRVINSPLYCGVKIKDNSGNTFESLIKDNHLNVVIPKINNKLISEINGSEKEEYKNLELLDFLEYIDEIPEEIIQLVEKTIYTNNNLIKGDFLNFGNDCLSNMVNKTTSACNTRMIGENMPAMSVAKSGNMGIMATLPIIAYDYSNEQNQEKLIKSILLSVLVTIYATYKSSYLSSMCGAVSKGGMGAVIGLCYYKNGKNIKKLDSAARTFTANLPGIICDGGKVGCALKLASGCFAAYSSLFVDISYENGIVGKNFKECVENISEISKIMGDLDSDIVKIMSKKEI
The experiment in a line: crystal structure, […] Å (from cryoprotectant). Type of data set: binding.

Data set [4] deals with the molecule itself. The data set is described as follows: SEC-MALS; apo-MmCyuA (cluster removed with dithionite and EDTA), 100 uL at 2 mg/mL on Superdex 200 10/300 GL Increase, 50 mM Tris-HCl pH 8.5, 300 mM NaCl, 5 mM DTT.

Turning to `O=S(=O)(O)CCN1CCOCC1` [2-(N-morpholino)ethanesulfonic acid], in data set [1], the “crystal structure, 2.42 Å (from crystallization solution)” value was “sulfonate group of MES and the chloride ion were located at the same anion binding site”. `N[C@@H](CO)C(=O)O` [L-serine]: the Ki in data set [2] is 15 ± 0.3 µM. In the case of `OCC(O)CO` [GOL, glycerol], the “crystal structure, 3.18 Å (from cryoprotectant)” value in data set [3] is reported as “One terminal hydroxyl of the glycerol molecule was coordinated to that Fe atom”.

B1: L-cysteine desulfidase CyuA from Methanococcus maripaludis (enzyme, Methanococcus maripaludis strain S2)
chain: T2 sequence (Q6LX84 1-396 C289A) with A289C
notes: L-cysteine desulfidase CyuA (MmCyuA), product of the mmp1468 gene of Methanococcus maripaludis strain S2 (NC_005791.1); synthetic codon-optimised gene in pET15b between NdeI and BamHI; theoretical mass of the monomer 43.7 kDa; the synthetic mmp1468 gene appears to have been cloned whole; Holo form carries one [4Fe-4S] cluster per monomer (Cys287, Cys289, Cys329, Cys336); in crystal 2 a [2Fe-2S] …
For B1, in data set [4], the “stoichiometry N” value came to 2.
